± gives the expanded uncertainty stated by the source.
How the values were obtained:
[1] = 298.15 K; 101.33 kPa; Liquid
[2] = refractive index (Na D-line) (dimensionless); conditions: 298.15 K; 101.33 kPa; Liquid
[3] = xn = mol fraction of the nth substance listed; conditions: 298.15 K, 101 kPa, Liquid
[4] = excess molar enthalpy (molar enthalpy of mixing); xn = mol fraction of the nth substance listed; conditions: 298.15 K, 101 kPa, Liquid

CCCCOC(=O)CC [butyl propanoate]
Conditions	mass density [kg/m3]	refractive index
[1]	871.08 ± 0.96	–
[2]	–	1.399 ± 0.001

ClCCCCCCl [1,5-dichloropentane] + CCCCOC=O
Conditions	excess molar enthalpy [kcal/mol]	mass density [kg/m3]
[3], x2 = 0.0616	–	1083.81 ± 0.67
[3], x2 = 0.126	–	1071.76 ± 0.72
[3], x2 = 0.1909	–	1059.46 ± 0.77
[3], x2 = 0.2522	–	1047.68 ± 0.82
[3], x2 = 0.3138	–	1035.64 ± 0.88
[3], x2 = 0.3757	–	1023.39 ± 0.93
[3], x2 = 0.4364	–	1011.18 ± 0.98
[3], x2 = 0.4966	–	998.9 ± 1
[3], x2 = 0.5548	–	986.84 ± 1.1
[3], x2 = 0.6137	–	974.47 ± 1.1
[3], x2 = 0.6701	–	962.48 ± 1.2
[3], x2 = 0.7247	–	950.68 ± 1.2
[3], x2 = 0.7822	–	938.09 ± 1.2
[3], x2 = 0.8374	–	925.86 ± 1.3
[3], x2 = 0.8906	–	913.92 ± 1.3
[3], x2 = 0.9443	–	901.66 ± 1.4
[4], x2 = 0.069	0.0113 ± 0.0011	–
[4], x2 = 0.1384	0.0179 ± 0.00129	–
[4], x2 = 0.2122	0.023 ± 0.00146	–
[4], x2 = 0.2809	0.025 ± 0.00151	–
[4], x2 = 0.3459	0.025 ± 0.00151	–
[4], x2 = 0.4058	0.0233 ± 0.00146	–
[4], x2 = 0.4619	0.0205 ± 0.00139	–
[4], x2 = 0.4922	0.0168 ± 0.00127	–
[4], x2 = 0.5374	0.0124 ± 0.00112	–
[4], x2 = 0.5877	0.0111 ± 0.00108	–
[4], x2 = 0.6417	0.00825 ± 0.001	–
[4], x2 = 0.7001	0.00729 ± 0.00098	–
[4], x2 = 0.7618	0.00571 ± 0.000908	–
[4], x2 = 0.8234	0.00366 ± 0.00086	–
[4], x2 = 0.8876	0.00206 ± 0.000813	–
[4], x2 = 0.9487	0.00105 ± 0.000765	–

CCCCOC(=O)CCC [butyl butanoate] + ClCCCCCCl
[3]
Conditions	mass density [kg/m3]
x1 = 0.0481	1081.06 ± 0.6
x1 = 0.0957	1067.51 ± 0.59
x1 = 0.1451	1053.83 ± 0.57
x1 = 0.1939	1040.72 ± 0.56
x1 = 0.2465	1026.89 ± 0.55
x1 = 0.3533	1000.09 ± 0.52
x1 = 0.4105	986.32 ± 0.52
x1 = 0.5282	959.19 ± 0.52
x1 = 0.6536	932.02 ± 0.52
x1 = 0.7875	904.75 ± 0.53
x1 = 0.8568	891.25 ± 0.54

CCCCOC(=O)CCC [butyl butanoate] + ClCCCCCCCl
[3]
Conditions	mass density [kg/m3]
x1 = 0.0545	1051.6 ± 1.1
x1 = 0.1071	1040.01 ± 1
x1 = 0.16	1028.52 ± 0.98
x1 = 0.2136	1017 ± 0.94
x1 = 0.2692	1005.25 ± 0.9
x1 = 0.3239	993.9 ± 0.86
x1 = 0.3815	982.05 ± 0.82
x1 = 0.439	970.43 ± 0.79
x1 = 0.5565	947.09 ± 0.72
x1 = 0.6826	922.79 ± 0.66
x1 = 0.7398	911.99 ± 0.64
x1 = 0.803	900.24 ± 0.61
x1 = 0.8726	887.54 ± 0.59
x1 = 0.9323	876.78 ± 0.57

CCCCOC(=O)CCC [butyl butanoate]
Conditions	mass density [kg/m3]	refractive index
[1]	864.84 ± 0.98	–
[2]	–	1.404 ± 0.001

CCCCOC(=O)CC [butyl propanoate] + ClCCCl
[3]
Conditions	mass density [kg/m3]
x1 = 0.0334	1222.24 ± 0.57
x1 = 0.0679	1199.39 ± 0.55
x1 = 0.1032	1177.4 ± 0.52
x1 = 0.1419	1154.78 ± 0.5
x1 = 0.1821	1132.96 ± 0.48
x1 = 0.2255	1110.88 ± 0.46
x1 = 0.2719	1088.82 ± 0.44
x1 = 0.3218	1066.84 ± 0.43
x1 = 0.3754	1044.9 ± 0.41
x1 = 0.4321	1023.34 ± 0.4
x1 = 0.4959	1001.02 ± 0.4
x1 = 0.5617	979.72 ± 0.42
x1 = 0.636	957.49 ± 0.44
x1 = 0.7142	936.1 ± 0.46
x1 = 0.804	913.62 ± 0.49
x1 = 0.8938	893.14 ± 0.52

ClCCCCl [1,3-dichloropropane] + CCCCOC(C)=O
[3]
Conditions	mass density [kg/m3]
x2 = 0.046	1159.83 ± 0.71
x2 = 0.0904	1142.04 ± 0.7
x2 = 0.1361	1124.29 ± 0.69
x2 = 0.1839	1106.48 ± 0.68
x2 = 0.2336	1088.53 ± 0.67
x2 = 0.2841	1070.96 ± 0.66
x2 = 0.3935	1035.06 ± 0.65
x2 = 0.5106	999.49 ± 0.65
x2 = 0.6371	964.06 ± 0.67
x2 = 0.7043	946.37 ± 0.68
x2 = 0.7737	928.82 ± 0.7
x2 = 0.8467	911.1 ± 0.71
x2 = 0.923	893.45 ± 0.72
